Literature values in patent US20090012008A1, “Pharmaceutical Composition for Photodynamic Therapy and a Method for Treating Oncological Diseases by Using Said Composition” (priority 2005, published 2009).

Experiments:
[1] = tested on: tumor cells of the HeLa S3 line; details: HeLa S3, in vitro

fullerocyclopentane
cytotoxic activity [1]: manifest only upon irradiation with light

c12c3c4c5c1c1c6c7c2c2c8c3c3c9c4c4c%10c5c5c1c1c6c6c%11c7c2c2c7c8c3c3c8c9c4c4c9c%10c5c5c1c1c6c6c%11c2c2c7c3c3c8c4c4c9c5c1c1c6c2c3c41 [fullerene C60]
effect on viability and proliferation rate (keratinocytes): no effect
effect on viability and proliferation rate (fibroblasts): no effect
